Values quoted from earlier work in US20040067947A1, “Method of preventing or treating atherosclerosis or restenosis” (priority 2002, published 2004).

Test system: CMV infection of rats
Settings: rats infected with CMV; DHPG prophylaxis; Lemstrom et al., Circulation 1994, 90:1969-1978

SMILES: Nc1nc(O)c2ncn(COC(CO)CO)c2n1 [Ganciclovir]
- prevention of atherosclerosis resulting from CMV infection: prevent atherosclerosis
